Source: patent US20050058745A1, “Use of Labiatae herb preparations for extending the flavor shelf life of malt beverages” (priority 2003, published 2005)

What was measured:
[1] = Haze formation in aged beer (Haze Meter); assay type: physicochemical; conditions: for Haze: 20 ppm (RA + CA: 10 ppm each); for effect on rate of haze formation: aged beer exposed to air
Procedure: The highly hopped beer from example 2 was treated with solutions of carnosic acid in ethanol, rosmarinic acid in ethanol or a mixture of carnosic acid and rosmarinic acid in ethanol as done previously. The preparations were: • 1. “Fresh”, in which the beer remained unopened and was stored in the cold room at 2-4° C. • 2. “20 ppm CA” in which bottles were opened and 20 ppm carnosic acid was added from a 2% solution of pure CA ([…] of the 2% solution). The bottles were fobbed to exclude air and crowned. • 3. “20 ppm CA+air” in which bottles were opened and 20 ppm CA added as above. These bottles received two puffs of air in the remaining headspace from a 25 mL bulb. They were crowned without fobbing • 4. “20 ppm RA” in which bottles were opened and 20 ppm rosmarinic acid added from a 2% solution. The bottles were fobbed and crowned. • 5. “20 ppm RA+air” which was done as in No. 4, with 20 ppm RA added. These bottles received the two puffs of air and were crowned without fobbing. • 6. “10 ppm RA+10 ppm CA” in which bottles were opened and 10 ppm each of carnosic and rosmarinic acids were added from pure solutions (178 μL of 2% solution per 12 oz bottle). Bottles were fobbed and crowned. • 7. “10 ppm RA+10 ppm CA+air” in which 10 ppm each of RA and CA was added. This treatment received two puffs of air and was not fobbed before closing. • 8. “Control+air” in which bottles were opened, given two puffs of air and crowned without fobbing. • 9. “Control” in which bottles were opened, fobbed and crowned.
The samples prepared in Example 18 were analyzed for haze in the following manner. A clean, dry, clear flint bottle was marked with a permanent mark on the neck for aligning the bottle the same way for each measurement. The bottle was filled with distilled water to the bottom of the neck and aligned in a Haze Meter with the alignment mark facing forward (Haze Meter, Type UKM1d, Radiometer Copenhagen) to zero the instrument. The bottle was emptied and then filled with a degassed beer sample to be tested and the haze was recorded in ASBC Formazin units.

[2] = DCIP redox potential vs CA concentration, semi-light beer; assay type: physicochemical; conditions: 4 hr, 2-4° C.
Procedure: The light beer was purchased at a local market and was 2 months old at time of use. Carnosic acid was added via a 1% ethanol solution made with pure CA. The levels of addition were 0, 5, 10, 15 and 20 ppm. The beers were opened, additions made and the beers were fobbed and crowned as described in Example 4. All analyses were done in triplicate using the DCIP method as described in Example 4. The samples were refrigerated for approx. 4 hr before being degassed and analyzed.
The same experiment was carried out with a semi-light beer with a production code indicating it was 5 months old.

[3] = DCIP redox potential of highly hopped beer during aging at 40° C.; assay type: physicochemical; parameters: DCIP Redox Value: scale not given here; conditions: for effect on DCIP redox potential: highly hopped beer aged at 40° C.
Procedure: Dr. […] H2SO4 brought to 100 mL in a volumetric flask. Four drops of starch indicator were added, and the DCIP was titrated with 0.01; sodium thiosulfate. The concentration of DCIP in mg/dL was measured by multiplying the mL of titer by 14.5. De-ionized water was added to adjust the final concentration to 1.45 mg/mL. 250 μL of adjusted DCIP was added to the 10 mL of degassed beer, the flask swirled to mix, and a 1 min timer started. The beer/DCIP was poured into a 1 cm cuvette and placed in the spectrophotometer. The absorbance was read at exactly 1 minute. These analyses were done in triplicate and averaged. […] The bottle dosing methods used were the same as those described in Example 1. The following samples were made: • 1. 20 ppm Carnosic Acid • 2. 20 ppm Carnosic Acid plus Air • 3. 20 ppm Rosmarinic Acid • 4. 20 ppm Rosmarinic Acid plus Air • 5. 10 ppm Carnosic Acid+10 ppm Rosmarinic Acid • 6. 10 ppm Carnosic Acid+10 ppm Rosmarinic Acid+Air • 7. […] No Additions. Treatments 1 through 8 were put in a temperature regulated room set at 40° C. and maintained at ±1° C. At intervals of Zero time, 3 days, 7 days, 14 days, and 21 days, samples were withdrawn and Redox Potentials were measured by the method outlined in example 4. Color measurements were made using the L, a, b system on a Minolta Spectrophotometer model […], chroma and hue angle color measure units were recorded. DPPH radical scavenging numbers were measured using the following method. A de-ionized-H2O/EtOH buffer solution was prepared by dissolving 250 mg sodium citrate dihydrate and 10 g of absolute ethanol in 250 mL of deionized water. The solution was then titrated with 0.1 N Citric acid (6.404 g/L anhydrous citric acid) a drop at a time to reach a pH of between 4.35 and 4.5.

[4] = Scaling sensory panel for staling, model citrus beverage; conditions: for Panelist staling Average (0 fresh, 10 most stale): 50 ppm (RA/CA: 50 ppm each)
Procedure: Carbon filtered water was carbonated to 3.5 to 4 times the volume of beer. 59.2 ml of syrup was added to each 355 ml bottle. Each bottle was individually dosed with the treatments listed in Table 22 by adding 1.775 mL of a 1% (weight/volume) solution of carnosol or rosmarinic acid in ethanol to give 50 ppm of each. The bottle was filled to approximately 355 ml with carbonated water before it was capped and inverted. Fresh samples were stored in the refrigerator (0° C.). Heat exposed samples were aged in the oven (32° C.) for seven days. The sensory data were taken in the following manner. Each sample (controls and treatments) was presented to the panelists one time. Panelists rated the beers on a scale of 0-10, with 0 being fresh and 10 being most stale. Panelists were given examples of a fresh and stale material prior to the panel for training on these characteristics. Since the output of the panel as a whole was desired, and not any one individual panelist, the means of each treatment sample in each replicate groups were calculated and tabulated as in Table 24. […] These diluted samples best represent the loss in flavor that occurs when the sample is thermally aged. […] Statistical analysis consisted of doing paired t-Tests on the treatment sample vs. the aged control sample (Table 25). One-tailed tests were used that probed the question whether the […] values of one treatment were lower than that of the other (e.g treatment vs. control). Confidence levels were reported along with p values.

[5] = 0 days at 40° C., + Air, 20 ppm (RA + CA: 10 ppm each)
[6] = 0 days at 40° C., no air, 20 ppm (CA + RA: 10 ppm each)
[7] = 3 days at 40° C., + Air, 20 ppm (RA + CA: 10 ppm each)
[8] = 3 days at 40° C., no air, 20 ppm (CA + RA: 10 ppm each)
[9] = 7 days at 40° C., + Air, 20 ppm (RA + CA: 10 ppm each)
[10] = 7 days at 40° C., no air, 20 ppm (CA + RA: 10 ppm each)
[11] = 14 days at 40° C., + Air, 20 ppm (RA + CA: 10 ppm each)
[12] = 14 days at 40° C., no air, 20 ppm (CA + RA: 10 ppm each)
[13] = 21 days at 40° C., + Air, 20 ppm (RA + CA: 10 ppm each)
[14] = 21 days at 40° C., no air, 20 ppm (CA + RA: 10 ppm each)

| SMILES | Haze ([1]; Day 0, 40° C., + air) [ASBC Formazin Units] | Haze ([1]; Day 0, 40° C., no air) [ASBC Formazin Units] | Haze ([1]; Day 3, 40° C., + air) [ASBC Formazin Units] | Haze ([1]; Day 3, 40° C., no air) [ASBC Formazin Units] | Haze ([1]; Day 7, 40° C., + air) [ASBC Formazin Units] | Haze ([1]; Day 7, 40° C., no air) [ASBC Formazin Units] | Haze ([1]; Day 14, 40° C., + air) [ASBC Formazin Units] | Haze ([1]; Day 14, 40° C., no air) [ASBC Formazin Units] | Haze ([1]; Day 21, 40° C., + air) [ASBC Formazin Units] | Haze ([1]; Day 21, 40° C., no air) [ASBC Formazin Units] | Haze ([1]; Day 35, 40° C., + air) [ASBC Formazin Units] | Haze ([1]; Day 35, 40° C., no air) [ASBC Formazin Units] | effect on rate of haze formation [1] | DCIP Redox Value [3, 5] | DCIP Redox Value [3, 6] | DCIP Redox Value [3, 7] | DCIP Redox Value [3, 8] | DCIP Redox Value [3, 9] | DCIP Redox Value [3, 10] | DCIP Redox Value [3, 11] | further results |
| --- | --- | --- | --- | --- | --- | --- | --- | --- | --- | --- | --- | --- | --- | --- | --- | --- | --- | --- | --- | --- | --- |
| CC(C)c1cc2c(c(O)c1O)[C@@]1(C(=O)O)CCCC(C)(C)[C@@H]1CC2 [CA, carnosic acid] | 40 | 40 | 45 | 30 | 50 | 35 | 80 | 45 | 120 | 75 | 800 | 110 | dramatic positive effect on reducing the rate of haze formation | 93.8 | 90.6 | 89.1 | 89.1 | 68.9 | 83.5 | 62.1 | Redox Potential ([2]; 5 ppm CA): 47.4; Redox Potential ([2]; 10 ppm CA): 56.6; Redox Potential ([2]; 15 ppm CA): 64.8; Redox Potential ([2]; 20 ppm CA): 73.9; DCIP Redox Value [3, 12]: 82.3; DCIP Redox Value [3, 13]: 62.9; DCIP Redox Value [3, 14]: 86.9; effect on DCIP redox potential ([3]; no air): increases the DCIP redox potential of the starting beer; effect on DCIP redox potential ([3]; with added air): beneficial effect on aged beer that contains added air |
| O=C(/C=C/c1ccc(O)c(O)c1)O[C@H](Cc1ccc(O)c(O)c1)C(=O)O [RA, rosmarinic acid] | 37 | 37 | 32 | 40 | 40 | 35 | 100 | 40 | 175 | 55 | 800 | 120 | dramatic positive effect on reducing the rate of haze formation | 76.0 | 76.3 | 63.4 | 76.2 | 48.3 | 63.9 | 25.1 | Panelist staling Average (0 fresh, 10 most stale) ([4]; Aged (32° C., seven days)): 6.17; Panelist staling Average (0 fresh, 10 most stale) ([4]; Fresh): 0.67; flavor stabilization in model citrus beverage ([4]; scaling study of staling): not an effect flavor stabilizer; DCIP Redox Value [3, 12]: 59.9; DCIP Redox Value [3, 13]: 26.6; DCIP Redox Value [3, 14]: 63.4; effect on DCIP redox potential ([3]; no air): no effect on the DCIP redox potential; effect on DCIP redox potential ([3]; with added air): not effective in preserving the DCIP redox potential |
